Experimental data reported in PMC8725971, “Polycyclic nitrogen heterocycles as potential thymidine phosphorylase inhibitors: synthesis, biological evaluation, and molecular docking study” (Journal of Enzyme Inhibition and Medicinal Chemistry, 2021).
Converted amounts (≈) assume the structure as drawn. Structures can show the parent of a compound that is named as a salt.

Columns and labels:
E. coli TP [1] = target: T1, E. coli TP (Escherichia coli, UniProt P07650); experiment: In vitro E. coli thymidine phosphorylase inhibition, spectrophotometric assay at 290 nm; assay type: biochemical; conditions: for inhibition at 15 µM: compound at 15 µM (maximum solubility); for inhibition at 25 µM: compound at 25 µM (maximum solubility); for inhibition at 50 µM: compound at 50 µM, average of three measurements; for IC50: 300 µM thymidine, pH 7.4, 25 °C
T1 construct: purchased Sigma Aldrich T2807-1KU
Method: The adopted protocol is a modification of the original method developed by Khan[51]. TP activity and inhibition assays were based on the phosphorolysis of thymidine to thymine, this conversion results in a significant spectrophotometric decrease. At 290 nm and pH 7.4, thymidine has a higher extinction coefficient than thymine (Δε = −480 M^−1 cm^−1). The absorbance at 290 nm was measured every 2 min for 30 min in 96-well plates at 25 °C.
Thymidine was dissolved in buffer (3 mM). […] All experiments were conducted in triplicate.
The method reported by Khan et al.[51] has been adapted to a screening in 96-well plates (200 µL well, UV-Star® 96-well microplate, Greiner). Each well contained 160 µL of 50 mM KH2PO4 buffer (pH 7.4), 0.006 U of E. coli TP (T2807-1KU, Sigma Aldrich), and 20 µL of the tested compound solution. […] The decrease in absorbance due to conversion of thymidine to thymine was followed during 30 min (PowerWave HT Microplate Reader, Biotek) at 25 °C, with one measure every 2 min and a 30 s shaking before each measure.

[2] = Solubility in the incubation medium; conditions: for solubility: aqueous buffer, kinetic from dmso stock; for Solubility (in words): incubation medium
physchem = conditions: aqueous buffer, kinetic from dmso stock
hTP = system: hTP; parameters: method as in PMID 27783978; conditions: cited from earlier work
E. coli TP [3] = target: T1, E. coli TP; experiment: Phosphate competition study; assay type: biochemical; conditions: saturating thymidine, phosphate 2–30 mM, compound at its IC50
Method: The synthesised compounds have been designed as TP inhibitors interacting with the thymidine fixation site. […] E. coli TP activity was determined in the presence of a saturating concentration of thymidine (equivalent to three times the value of the Michaelis-Menten constant [km][52]) and variable amounts of phosphate (2–30 mM). Tested compounds have been used at a concentration corresponding to the IC50.
For this study, the reaction mixture was composed of 160 µL of 10 mM Tris buffer (pH 7.4), 150 mM NaCl, 2 mM EDTA, 0.006 U of E. coli TP, different concentrations of KH2PO4 (2, 5, 10 and 30 mM). Compounds were tested at a concentration close to their IC50. The reaction was initiated by the addition of 20 µL of thymidine (3 mM and 10 mM solutions).

[4] = system: epidermal carcinoma cells (A431); experiment: Cell proliferation assay (MTT), A431; assay type: cell-based; conditions: Homo sapiens, 72 h, read-out: Growth inhibition, A431
Method: (§1) The inhibitory effect on cell proliferation was assessed using MTT assay[53] after 72 h of treatment through dose-response assays performed in the 100 µM to 0.1 µM concentration range. The results were expressed as percentages of growth inhibition.
(§2) Cell viability was determined on HUVEC and A431 cell lines using 3–(4,5-dimethylthiazol-2-yl)-2,5-diphenyltetrazolium bromide (MTT; Sigma-Aldrich) assay[53] after treatment with compounds 2d and 2p. A total of 5 × 10^3 cells/well (A431 cell line) or 10^4 cells/well (HUVEC cell line) were plated in a 96-well plate and treated, in duplicates, with compounds 2d and 2p at five concentrations (0.1 µM, 1 μM, 10 μM, 50 μM, 100 μM) for 72 h. Absorbance was read at 570 nm using Labsystem Multiskan MS microplate reader. The results were expressed as percentages of growth inhibition compared to positive control cell growth (100%).

[5] = system: human umbilical vein endothelial cells (HUVEC); experiment: Cell proliferation assay (MTT), HUVEC; assay type: cell-based; conditions: 72 h, read-out: Growth inhibition, HUVEC
Method: as §1, §2

E. coli TP [6] = target: T1, E. coli TP; experiment: Enzyme inhibition kinetic study (Lineweaver-Burk); assay type: biochemical; conditions: for Km values in the presence of inhibitor / Vmax values in the presence of inhibitor: increasing inhibitor concentration; for Type of TP inhibition: thymidine as substrate, Lineweaver-Burk plots
Method: The percentage of TP inhibition was determined for different concentrations of the inhibitors and thymidine.
Figure 7. […] Results are presented as means ± SD; SD denoted by error bars (experiments carried out in triplicate).
The TP inhibiting activity at differents concentrations of compound 2d (0, 15, 20, 30 µM) and 2p (0, 4, 6, 8 µM) was evaluated in the presence of different concentrations of thymidine ([…]) in KH2PO4 buffer (pH 7.4).

T1 sequence (P07650 whole entry): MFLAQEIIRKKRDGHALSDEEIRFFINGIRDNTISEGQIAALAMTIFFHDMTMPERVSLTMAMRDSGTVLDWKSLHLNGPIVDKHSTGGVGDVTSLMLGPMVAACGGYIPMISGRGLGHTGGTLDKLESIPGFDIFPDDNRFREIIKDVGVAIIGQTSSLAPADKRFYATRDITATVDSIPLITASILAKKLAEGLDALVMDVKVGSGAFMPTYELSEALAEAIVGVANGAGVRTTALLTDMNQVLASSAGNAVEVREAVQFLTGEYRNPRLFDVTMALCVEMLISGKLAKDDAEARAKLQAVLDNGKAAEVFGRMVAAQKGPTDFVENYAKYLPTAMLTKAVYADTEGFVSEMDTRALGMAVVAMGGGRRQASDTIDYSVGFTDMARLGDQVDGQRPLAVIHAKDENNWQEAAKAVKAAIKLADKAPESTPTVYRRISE

| Structure (SMILES) | solubility [2] | Solubility (in words) [2] | melting point | inhibition at 50 µM (E. coli TP [1]; 2.5% DMSO) | also measured |
| --- | --- | --- | --- | --- | --- |
| O=c1[nH]c(=O)c2cc3ccc4ccccc4c3nc2[nH]1 [Compound 2n, Benzo[h]pyrimido[4,5-b]quinoline-8,10(9H,11H)-dione)] | 15 µM (≈ 3.95 µg/mL) | less soluble | 326 to 328 °C |  | inhibition at 15 µM (E. coli TP [1]; 2.5% DMSO): 0% |
| O=C1c2cc3cc4c(cc3nc2C(=O)N1CCCCCCn1cc(Br)c(=O)[nH]c1=O)OCO4 [Compound 16b, 2-[6-(5-Bromo-2,4-dioxo-3,4-dihydropyrimidine-1(2H)-yl)hexyl]-6,7-methylenedioxy-2H-pyrrolo[3,4-b]quinoline-1,3-dione] | 12.5 µM (≈ 6.44 µg/mL) | less soluble | 282 to 283 °C |  | inhibition at 12.5 µM (E. coli TP [1]; compound at 12.5 µM (maximum solubility), 2.5% DMSO): 30% |
| O=C1c2cc3cc4c(cc3nc2C(=O)N1CCCCn1cc(Br)c(=O)[nH]c1=O)OCO4 [Compound 16a, 2-[4-(5-Bromo-2,4-dioxo-3,4-dihydropyrimidine-1(2H)-yl)butyl]-6,7-methylenedioxy-2H-pyrrolo[3,4-b]quinoline-1,3-dione] | 25 µM (≈ 12.2 µg/mL) | less soluble | 276 °C |  | inhibition at 25 µM (E. coli TP [1]; 2.5% DMSO): 30% |
| O=C1c2cc3cc4c(cc3nc2C(=O)N1Cc1cc(=O)[nH]c(=O)[nH]1)OCO4 [Compound 22, 2-[(2,6-Dioxo-1,2,3,6-tetrahydropyrimidin-4-yl)methyl]-6,7-methylenedioxy-1H-pyrrolo[3,4-b]quinoline-1,3(2H)-dione] | 15 µM (≈ 5.49 µg/mL) | less soluble | 407 to 409 °C (dec.) |  | inhibition at 15 µM (E. coli TP [1]; 2.5% DMSO): 25% |
| CN(C)c1c2cc3c(cc2nc2[nH]c(=O)[nH]c(=O)c12)OCO3 [Compound 2s, 5-Dimethylamino-7,8-methylenedioxypyrimido[4,5-b]quinoline-2,4(1H,3H)-dione] | 15 µM (≈ 4.5 µg/mL) |  | 348 °C |  | inhibition at 15 µM (E. coli TP [1]; 2.5% DMSO): 0% |
| O=C1c2cc3cc4c(cc3nc2C(=O)N1Cc1[nH]c(=O)[nH]c(=O)c1Cl)OCO4 [Compound 23a, 2-[(5-Chloro-2,6-dioxo-1,2,3,6-tetrahydropyrimidin-4-yl)methyl]-6,7-methylenedioxy-1H-pyrrolo[3,4-b]quinoline-1,3(2H)-dione] |  |  | 352 to 354 °C (dec.) | 0% |  |
| O=C1c2cc3cc4c(cc3nc2C(=O)N1Cc1ccccc1)OCO4 [Compound 24, 6,7-Methylenedioxy-2-benzylpyrrolo[3,4-b]quinoline-1,3-dione] |  |  | 191 to 193 °C | 20% |  |
| O=c1[nH]c(=O)c2cc3cc4c(cc3nc2[nH]1)OCO4 [Compound 2g] |  | sparingly soluble |  |  | inhibition at 15 µM (E. coli TP [1]; 2.5% DMSO): 0%; solubility (physchem): 15 µM (≈ 3.86 µg/mL) |
| N=C1CCCN1Cc1[nH]c(=O)[nH]c(=O)c1Cl [TPI, 5-chloro-6-[1-(2-iminopyrrolidinyl)methyl]uracil hydrochloride] |  |  |  |  | IC50 (hTP): 0.035 µM |
| O=C1c2cc3cc4c(cc3nc2C(=O)N1Cc1[nH]c(=O)[nH]c(=O)c1Br)OCO4 [Compound 23b, 2-[(5-Bromo-2,6-dioxo-1,2,3,6-tetrahydropyrimidin-4-yl)methyl]-6,7-methylenedioxy-1H-pyrrolo[3,4-b]quinoline-1,3(2H)-dione] | 50 µM (≈ 22.3 µg/mL) | less soluble | 370 to 372 °C (dec.) | 30% | Binding to the phosphate site (E. coli TP [3]): did not bind to the phosphate site |
| COc1ccc2c(C)c3c(=O)[nH]c(=O)[nH]c3nc2c1 [Compound 2p] | > 50 µM |  |  | 67% | inhibition at 100 µM ([4]; A-431, 100 µM): 50%; IC50 (E. coli TP [1]): 26 µM; inhibition at 100 µM [5]: 31%; Binding to the phosphate site (E. coli TP [3]): did not bind to the phosphate site; Km values in the presence of inhibitor (E. coli TP [6]): increased; Vmax values in the presence of inhibitor (E. coli TP [6]): did not change significantly; Type of TP inhibition (E. coli TP [6]): competitive |
| O=C1c2cc3c(=O)[nH]c(=O)[nH]c3nc2C(=O)N1Cc1cccnc1 [Compound 28f, 7-(Pyridin-3-ylmethyl)-1H-pyrrolo[3′,4′:5,6]pyrido[2,3-d]pyrimidine-2,4,6,8(3H,7H)-tetraone] |  |  | > 360 °C | 0% |  |
| O=c1[nH]c(=O)c2cc3ccc(Cc4ccccc4)cc3nc2[nH]1 [Compound 2i, 8-Benzylpyrimido[4,5-b]quinoline-2,4(1H,3H)-dione] | 50 µM (≈ 15.2 µg/mL) |  | 297 to 299 °C (dec.) | 30% |  |
| O=C1c2cc3cc4c(cc3nc2C(=O)N1Cc1[nH]c(=O)[nH]c(=O)c1I)OCO4 [Compound 23c, 2-[(5-Iodo-2,6-dioxo-1,2,3,6-tetrahydropyrimidin-4-yl)methyl]-6,7-methylenedioxy-1H-pyrrolo[3,4-b]quinoline-1,3(2H)-dione] |  |  | 365 to 367 °C (dec.) | 0% |  |
| O=c1[nH]c(=O)c2cc3cc(Cl)c(Cl)cc3nc2[nH]1 [Compound 2l, 7,8-Dichloropyrimido[4,5-b]quinoline-2,4(1H,3H)-dione] | > 50 µM |  | > 360 °C | 71% | IC50 (E. coli TP [1]): 42 µM |
| O=C(NCc1cc(=O)[nH]c(=O)[nH]1)c1cc2c(=O)[nH]c(=O)[nH]c2nc1C(=O)NCc1cc(=O)[nH]c(=O)[nH]1 [Compound 30, N^6,N^7-Bis((2,6-dioxo-1,2,3,6-tetrahydropyrimidin-4-yl)methyl)-2,4-dioxo-1,2,3,4-tetrahydropyrido[2,3-d]pyrimidine-6,7-dicarboxamide] | > 50 µM |  | 259 to 261 °C (dec.) | 31% | IC50 (E. coli TP [1]): 87 µM; Binding to the phosphate site (E. coli TP [3]): did not bind to the phosphate site |
| O=c1[nH]c(=O)c2cc3ccc(Oc4ccccc4)cc3nc2[nH]1 [Compound 2e, 8-Phenoxypyrimido[4,5-b]quinoline-2,4(1H,3H)-dione] | 50 µM (≈ 15.3 µg/mL) |  | 334 to 336 °C (dec.) | 30% |  |
| COc1ccc2cc3c(=O)[nH]c(=O)[nH]c3nc2c1 [Compound 2d] | > 50 µM |  |  | 89% | inhibition at 50 µM ([4]; A-431, 50 µM): 57%; IC50 (E. coli TP [1]): 28 µM; inhibition at 100 µM [5]: 56%; Km values in the presence of inhibitor (E. coli TP [6]): increased; Vmax values in the presence of inhibitor (E. coli TP [6]): did not change significantly; Type of TP inhibition (E. coli TP [6]): competitive |
| O=c1[nH]c(=O)c2cc3ccc4cc5ccccc5cc4c3nc2[nH]1 [Compound 2o, Naphto[2,3-h]pyrimido[4,5-b]quinoline-2,4(1H,3H)-dione] | 25 µM (≈ 7.83 µg/mL) | less soluble | > 360 °C |  | inhibition at 25 µM (E. coli TP [1]; 2.5% DMSO): 0% |
| O=C1c2cc3c(=O)[nH]c(=O)[nH]c3nc2C(=O)N1Cc1ccccc1 [Compound 28a] | > 50 µM |  |  | 44% | IC50 (E. coli TP [1]): 62 µM; Binding to the phosphate site (E. coli TP [3]): did not bind to the phosphate site |
